These molecules were tested against HPK1 (Homo sapiens (Human), UniProt Q92918) (assay: HPK1 Inhibition Assay (ADP-Glo kinase assay)). Conditions: ATP 10 μM.
Format: biochemical
Summary of the method: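 ADP-Glo luminescence read-out after 1 h room-temperature kinase reaction with 10 μM ATP and 0.1 μg/ml MBP. Recombinant human HPK1 at 7.5 ng/μl; buffer 40 mM Tris pH 7.5, 20 mM MgCl2. Compounds serially diluted 5-fold over 10 points from 10 mM DMSO stock.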

Sequence of HPK1 (Q92918 1-346 limits assumed): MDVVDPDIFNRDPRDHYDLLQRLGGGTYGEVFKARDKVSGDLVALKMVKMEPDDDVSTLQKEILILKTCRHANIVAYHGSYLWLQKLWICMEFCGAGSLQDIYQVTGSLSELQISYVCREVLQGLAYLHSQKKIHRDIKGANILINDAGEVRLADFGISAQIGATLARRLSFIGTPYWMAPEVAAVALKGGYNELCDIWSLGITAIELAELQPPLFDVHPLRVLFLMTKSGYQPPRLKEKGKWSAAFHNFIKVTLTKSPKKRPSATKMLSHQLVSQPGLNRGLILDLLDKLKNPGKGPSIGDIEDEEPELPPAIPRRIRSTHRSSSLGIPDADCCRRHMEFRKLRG

IC50, < 100 nM:
C[C@@H]1CN(c2c(NC(=O)c3ccc(=O)n(-c4c(F)cccc4F)n3)ccc3nn(C(C)(C)C)cc23)C[C@@H]1N [Example 234, N-[4-[(3R,4R)-3-amino-4-methyl-pyrrolidin-1-yl]-2-tert-butyl-indazol-5-yl]-1-(2,6-difluorophenyl)-6-oxo-pyridazine-3-carboxamide]
CC(C)(C)n1cc2c(N3C[C@H](N)C4(CC4)C3)c(NC(=O)c3ccc(=O)n(-c4c(F)cccc4F)n3)ccc2n1 [Example 235, (R)-N-(4-(7-amino-5-azaspiro[2.4]heptan-5-yl)-2-(tert-butyl)-2H-indazol-5-yl)-1-(2,6-difluorophenyl)-6-oxo-1,6-dihydropyridazine-3-carboxamide]
CC1(C)CN(c2c(NC(=O)c3ccc(=O)n(-c4c(F)cccc4F)n3)ccc3nn(C(C)(C)C)cc23)C[C@@H]1N [Example 236, (R)-N-(4-(4-amino-3,3-dimethylpyrrolidin-1-yl)-2-(tert-butyl)-2H-indazol-5-yl)-1-(2,6-difluorophenyl)-6-oxo-1,6-dihydropyridazine-3-carboxamide]
CC1(C)CN(c2c(NC(=O)c3ccc(=O)n(-c4c(F)cccc4F)n3)ccc3nn(C(C)(C)C)cc23)C[C@H]1N [Example 237, (S)-N-(4-(4-amino-3,3-dimethylpyrrolidin-1-yl)-2-(tert-butyl)-2H-indazol-5-yl)-1-(2,6-difluorophenyl)-6-oxo-1,6-dihydropyridazine-3-carboxamide]
C[C@H]1CN(c2c(NC(=O)c3ccc(=O)n(-c4c(F)cccc4F)n3)ccc3nn(C(C)(C)C)cc23)C[C@@H]1N [Example 238, N-(4-((3R,4S)-3-amino-4-methylpyrrolidin-1-yl)-2-(tert-butyl)-2H-indazol-5-yl)-1-(2,6-difluorophenyl)-6-oxo-1,6-dihydropyridazine-3-carboxamide]
CC(C)(C)n1cc2c(N3CCC[C@@H](N)C3)c(NC(=O)c3ccc(=O)n(-c4c(F)cccc4F)n3)ccc2n1 [Example 239, (R)-N-(4-(3-aminopiperidin-1-yl)-2-(tert-butyl)-2H-indazol-5-yl)-1-(2,6-difluorophenyl)-6-oxo-1,6-dihydropyridazine-3-carboxamide]
CC(C)(C)n1cc2c(N3CCC(N)CC3)c(NC(=O)c3ccc(=O)n(-c4c(F)cccc4F)n3)ccc2n1 [Example 240, N-(4-(4-aminopiperidin-1-yl)-2-(tert-butyl)-2H-indazol-5-yl)-1-(2,6-difluorophenyl)-6-oxo-1,6-dihydropyridazine-3-carboxamide]
CC(C)(C)n1cc2c(N3CC[C@@H](N)C3)c(NC(=O)c3ccc(=O)n(-c4c(F)cccc4F)n3)ccc2n1 [Example 241, (R)-N-(4-(3-aminopyrrolidin-1-yl)-2-(tert-butyl)-2H-indazol-5-yl)-1-(2,6-difluorophenyl)-6-oxo-1,6-dihydropyridazine-3-carboxamide]
CC(C)(C)n1cc2c(N3C[C@@H](N)C4(CC4)C3)c(NC(=O)c3ccc(=O)n(-c4c(F)cccc4F)n3)ccc2n1 [Example 242, (S)-N-(4-(7-amino-5-azaspiro[2.4]heptan-5-yl)-2-(tert-butyl)-2H-indazol-5-yl)-1-(2,6-difluorophenyl)-6-oxo-1,6-dihydropyridazine-3-carboxamide]
CCC(C)(C)n1cc2c(N3C[C@H](C)[C@@H](N)C3)c(NC(=O)c3ccc(=O)n(-c4c(F)cccc4F)n3)ccc2n1 [Example 243, N-(4-((3R,4S)-3-amino-4-methylpyrrolidin-1-yl)-2-(tert-pentyl)-2H-indazol-5-yl)-1-(2,6-difluorophenyl)-6-oxo-1,6-dihydropyridazine-3-carboxamide]
CCC(C)(C)n1cc2c(N3C[C@@H](C)[C@@H](N)C3)c(NC(=O)c3ccc(=O)n(-c4c(F)cccc4F)n3)ccc2n1 [Example 244, 1-(2,6-difluorophenyl)-N-(4-[(3R,4R)-3-amino-4-methyltetrahydro-1H-pyrrol-1-yl]-2-(2-methylbut-2-yl)indazol-5-yl)-6-oxo-1,2-diazine-3-carboxamide]
C[C@@H]1CN(c2c(NC(=O)c3ccc(=O)n(-c4c(F)cccc4F)n3)ccc3nn(C(C)(C)C(C)(C)C)cc23)C[C@@H]1N [Example 245, N-(4-((3R,4R)-3-amino-4-methylpyrrolidin-1-yl)-2-(2,3,3-trimethylbutan-2-yl)-2H-indazol-5-yl)-1-(2,6-difluorophenyl)-6-oxo-1,6-dihydropyridazine-3-carboxamide]
CC(C)(C)C(C)(C)n1cc2c(N3C[C@H](N)C4(CC4)C3)c(NC(=O)c3ccc(=O)n(-c4c(F)cccc4F)n3)ccc2n1 [Example 246, (R)-N-(4-(7-amino-5-azaspiro[2.4]heptan-5-yl)-2-(2,3,3-trimethylbutan-2-yl)-2H-indazol-5-yl)-1-(2,6-difluorophenyl)-6-oxo-1,6-dihydropyridazine-3-carboxamide]
CC(C)C(C)(C)n1cc2c(N3C[C@@H](C)[C@@H](N)C3)c(NC(=O)c3ccc(=O)n(-c4c(F)cccc4F)n3)ccc2n1 [Example 247, N-(4-((3R,4R)-3-amino-4-methylpyrrolidin-1-yl)-2-(2,3-dimethylbutan-2-yl)-2H-indazol-5-yl)-1-(2,6-difluorophenyl)-6-oxo-1,6-dihydropyridazine-3-carboxamide]
CC(C)C(C)(C)n1cc2c(N3C[C@H](N)C4(CC4)C3)c(NC(=O)c3ccc(=O)n(-c4c(F)cccc4F)n3)ccc2n1 [Example 248, (R)-N-(4-(7-amino-5-azaspiro[2.4]heptan-5-yl)-2-(2,3-dimethylbutan-2-yl)-2H-indazol-5-yl)-1-(2,6-difluorophenyl)-6-oxo-1,6-dihydropyridazine-3-carboxamide]
N[C@H]1CN(c2c(NC(=O)c3ccc(=O)n(-c4c(F)cccc4F)n3)ccc3c2cnn3[C@H]2CCOC2)CC12CC2 [Example 249, 1-(2,6-difluorophenyl)-N-{4-[(7R)-7-amino-5-azaspiro[2.4]heptan-5-yl]-1-[(3S)-tetrahydro-3-furyl]indazol-5-yl}-6-oxo-1,2-diazine-3-carboxamide]
N[C@H]1CN(c2c(NC(=O)c3ccc(=O)n(-c4c(F)cccc4F)n3)ccc3c2cnn3[C@@H]2CCOC2)CC12CC2 [Example 250, N-(4-((R)-7-amino-5-azaspiro[2.4]heptan-5-yl)-1-((R)-tetrahydrofuran-3-yl)-1H-indazol-5-yl)-1-(2,6-difluorophenyl)-6-oxo-1,6-dihydropyridazine-3-carboxamide]
N[C@H]1CN(c2c(NC(=O)c3ccc(=O)n(-c4c(F)cccc4F)n3)ccc3c2cnn3C2CCOCC2)CC12CC2 [Example 251, (R)-N-(4-(7-amino-5-azaspiro[2.4]heptan-5-yl)-1-(tetrahydro-2H-pyran-4-yl)-1H-indazol-5-yl)-1-(2,6-difluorophenyl)-6-oxo-1,6-dihydropyridazine-3-carboxamide]
C[C@@H]1CN(c2c(NC(=O)c3ccc(=O)n(-c4c(F)cccc4F)n3)ccc3c2cnn3[C@@H]2CCCOC2)C[C@@H]1N [Example 252, N-(4-((3R,4R)-3-amino-4-methylpyrrolidin-1-yl)-1-((R)-tetrahydro-2H-pyran-3-yl)-1H-indazol-5-yl)-1-(2,6-difluorophenyl)-6-oxo-1,6-dihydropyridazine-3-carboxamide]
C[C@@H]1CN(c2c(NC(=O)c3ccc(=O)n(-c4c(F)cccc4F)n3)ccc3c2cnn3[C@H]2CCCOC2)C[C@@H]1N [Example 253, N-(4-((3R,4R)-3-amino-4-methylpyrrolidin-1-yl)-1-((S)-tetrahydro-2H-pyran-3-yl)-1H-indazol-5-yl)-1-(2,6-difluorophenyl)-6-oxo-1,6-dihydropyridazine-3-carboxamide]
C[C@@H]1CN(c2c(NC(=O)c3ccc(=O)n(-c4c(F)cccc4F)n3)ccc3c2cnn3[C@H]2CCOC2)C[C@@H]1N [Example 255, N-(4-((3R,4R)-3-amino-4-methylpyrrolidin-1-yl)-1-((S)-tetrahydrofuran-3-yl)-1H-indazol-5-yl)-1-(2,6-difluorophenyl)-6-oxo-1,6-dihydropyridazine-3-carboxamide]
CC[C@H](C)n1ncc2c(N3C[C@@H](C)[C@@H](N)C3)c(NC(=O)c3ccc(=O)n(-c4c(F)cccc4F)n3)ccc21 [Example 256, N-(4-((3R,4R)-3-amino-4-methylpyrrolidin-1-yl)-1-((S)-sec-butyl)-1H-indazol-5-yl)-1-(2,6-difluorophenyl)-6-oxo-1,6-dihydropyridazine-3-carboxamide]
CC[C@@H](C)n1ncc2c(N3C[C@@H](C)[C@@H](N)C3)c(NC(=O)c3ccc(=O)n(-c4c(F)cccc4F)n3)ccc21 [Example 257, N-(4-((3R,4R)-3-amino-4-methylpyrrolidin-1-yl)-1-((R)-sec-butyl)-1H-indazol-5-yl)-1-(2,6-difluorophenyl)-6-oxo-1,6-dihydropyridazine-3-carboxamide]
C[C@@H]1CN(c2c(NC(=O)c3ccc(=O)n(-c4c(F)cccc4F)n3)ccc3c2cnn3C2COC2)C[C@@H]1N [Example 258, N-(4-((3R,4R)-3-amino-4-methylpyrrolidin-1-yl)-1-(oxetan-3-yl)-1H-indazol-5-yl)-1-(2,6-difluorophenyl)-6-oxo-1,6-dihydropyridazine-3-carboxamide]
C[C@H]1CN(c2c(NC(=O)c3ccc(=O)n(-c4c(F)cccc4F)n3)ccc3c2cnn3[C@@H]2CCOC2)C[C@@H]1N [Example 259, N-(4-((3R,4S)-3-amino-4-methylpyrrolidin-1-yl)-1-((R)-tetrahydrofuran-3-yl)-1H-indazol-5-yl)-1-(2,6-difluorophenyl)-6-oxo-1,6-dihydropyridazine-3-carboxamide]

Source: patent US20250122174A1 (Shenzhen Yuanli Shenwan Innovative Medicine Co., Ltd., priority 2022, published 2025)
